From PMC10165273, “Itch receptor MRGPRX4 interacts with the receptor activity–modifying proteins” (The Journal of Biological Chemistry, 2023)
Converted amounts (≈) assume the structure as drawn. “And” between values parts separate entries of the source, which are not always exact repeats. Equal values may be shown once. *1 amine or outer side, *2 acyl side, *3 side chain or, on linkers, in order; H or OH if unused. Where a SMILES comes first, the peptide text is derived from it. Bridges are numbered along the chain shown (N, C = ends). [ ]: non-standard residue; d: D form. X1 = CC(=O)NC(C(=O)OC(C(C)C)C(N[*:1])C(=O)[*:2])C(O)C(C)C; PhLac = O=C(O)[CH](O)Cc1ccccc1; NMeT = CN[CH](C(=O)O)[CH](C)O; NMeA = CN[CH](C)C(=O)O; NMeDha = C=C(NC)C(=O)O

How the values were obtained:
[1] = system: mock-transfected HEK293T cells; assay: IP1 accumulation, mock-transfected cells; assay type: cell-based, human; parameters: IP1 Basal / IP1 span / IP1 Emax / IP1 accumulation, dose-response (Figure 1a) / IP1 accumulation with YM (Figure 1c) / IP1 accumulation: unit not given here; conditions: for IP1 Basal / IP1 Emax / IP1 span: Mock
Experimental: (§1) HEK293T cells were transfected with 1 pg/cell of MRGPRX4 DNA, and the amount of DNA was kept constant at 2 pg/cell with pcDNA3.1(+) empty vector, unless otherwise specified. Twenty four hours after transfection, IP1 assay was performed as previously described ([51]). When applicable, cells were treated with 1 μM YM254890 (YM) or different concentrations of U73122 for 1 h prior to addition of agonist or buffer. After incubation for 2 h, HTRF reagents and IP1 calibration standards were added and incubated for 2 h in the dark at room temperature. Time-resolved fluorescence signals were read on the BioTek Synergy NEO-TRF Hybrid multi-mode reader (BioTek Instruments). All data were carried out in three independent experiments with three technical replicate each.
(§2) Validation of CALCRL constructs was assayed by cotransfecting HEK293T cells with different tagged versions of CALCRL alone or with each RAMP and with the promiscuous Gqs5 Gq chimera protein, at a respective DNA ratio of 1:1:0.5. Gqs5 is an engineered Gq protein containing the last five amino acid residues of Gs, which allows Gs-coupled GPCRs to signal through Gq downstream signaling pathways ([55]). The homogenous transfection method described above was used for all DNA mixes. CALCRL:RAMP2:Gqs5-transfected cells served as positive control for RAMP functionality.
(§3) Data reduction, standard calibration, and transformation of HTRF data were performed as previously described ([51]). Normalized IP1 values were calculated relative to the unstimulated mock-transfected cells (set to 0%) and fully stimulated MRGPRX4 (alone if applicable) (set to 100%).

CALCRL = target: T1, CALCRL (Homo sapiens, UniProt Q16602); assay: IP1 accumulation, CALCRL alone with Gqs5; assay type: cell-based
T1 construct: 5-HT3a receptor signal peptide (X1) (N); expressed in transfected cells; host or cells: HEK293T
T1 sequence (Q16602 23-461): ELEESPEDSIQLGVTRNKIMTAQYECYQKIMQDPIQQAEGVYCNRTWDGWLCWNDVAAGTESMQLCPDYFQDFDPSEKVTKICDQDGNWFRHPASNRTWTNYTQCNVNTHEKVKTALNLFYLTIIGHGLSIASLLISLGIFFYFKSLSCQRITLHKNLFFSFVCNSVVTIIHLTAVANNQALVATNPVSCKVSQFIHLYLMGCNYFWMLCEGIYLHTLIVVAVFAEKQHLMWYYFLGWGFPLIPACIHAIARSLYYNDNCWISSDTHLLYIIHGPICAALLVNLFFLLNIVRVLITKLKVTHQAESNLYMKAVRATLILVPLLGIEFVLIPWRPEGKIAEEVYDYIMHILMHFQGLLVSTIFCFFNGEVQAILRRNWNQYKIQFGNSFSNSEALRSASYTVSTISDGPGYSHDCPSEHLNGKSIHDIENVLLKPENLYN
Experimental: as §2, §3

CALCRL + RAMP3 = target: T2, CALCRL + RAMP3 (Homo sapiens, UniProt O60896+Q16602); assay: IP1 accumulation, CALCRL with RAMP3 and Gqs5; assay type: cell-based
T2 construct: 5-HT3a receptor signal peptide (X1) (N); expressed in transfected cells; host or cells: HEK293T
T2 sequence (Q16602 23-461): as above
T2 sequence (O60896 28-148 limits assumed): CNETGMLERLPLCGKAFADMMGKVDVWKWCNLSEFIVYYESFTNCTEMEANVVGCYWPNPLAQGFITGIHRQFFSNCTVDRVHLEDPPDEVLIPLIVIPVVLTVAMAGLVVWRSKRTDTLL
Experimental: as §2, §3

MRGPRX4 = target: T3, MRGPRX4 (Homo sapiens, UniProt Q96LA9); assay: IP1 accumulation HTRF assay, MRGPRX4; assay type: cell-based; parameters: key to IP1 Basal / IP1 accumulation with YM (Figure 1c) / response to agonist, MRGPRX4 / IP1 accumulation: % IP1: unstimulated mock-transfected = 0%, fully stimulated MRGPRX4 = 100%; conditions: for effect on nateglinide and DCA IP1 responses: inhibitor pretreatment 1 h (Fig. S1D-E); for effect on MRGPRX4 basal IP1 activity: no agonist (Figs. 1C and S1E); for IP1 accumulation with YM (Figure 1c): YM 1 µM, no agonist
T3 construct: expressed in transfected cells; host or cells: HEK293T
T3 sequence (Q96LA9 whole entry): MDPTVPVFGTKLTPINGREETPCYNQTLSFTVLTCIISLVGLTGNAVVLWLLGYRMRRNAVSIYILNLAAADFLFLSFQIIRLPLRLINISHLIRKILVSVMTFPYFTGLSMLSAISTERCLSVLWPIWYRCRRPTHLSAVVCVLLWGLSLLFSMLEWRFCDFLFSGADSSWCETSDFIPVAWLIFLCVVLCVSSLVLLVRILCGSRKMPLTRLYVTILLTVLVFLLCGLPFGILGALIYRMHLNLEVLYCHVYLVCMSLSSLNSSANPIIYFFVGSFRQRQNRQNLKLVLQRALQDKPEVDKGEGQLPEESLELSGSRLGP
Experimental: as §1
(§4) For characterization of the Tet-On Nluc-HT7-MRGPRX4-GFP10-1D4 construct, HEK293T cells were transfected as previously described with some modifications. Dox dose-response of NLuc-HT7-MRGPRX4-GFP10-1D4 DNA titration was assayed by transfecting HEK293T cells with either 1 or 2 pg/cell of NLuc-HT7-MRGPRX4-GFP10-1D4 construct. Receptor expression was induced 4 h after transfection with addition of different concentrations of dox for 20 h. For the RAMP DNA titration assay, cells were cotransfected with a constant amount of 1 pg/cell of NLuc-HT7-MRGPRX4-GFP10-1D4 DNA and 1, 0.75, 0.5, or 0 pg/cell of each HA-RAMP-OLLAS with the homogenous transfection method. Four hours after transfection, receptor expression was induced with addition of 1000 ng/ml dox. Twenty hours after induction, IP1 assay was performed.
as §3

Tet-On MRGPRX4 = assay: dox-induced total receptor expression, Nano-Glo luminescence; assay type: cell-based, human; conditions: normalized total luminescence (Fig. S5I); for EC50: Homo sapiens
Experimental: as §4
HEK293T cells were transfected with 1 pg/cell of Tet-On FLAG-NLuc-HT7-MRGPRX4-GFP10-1D4 alone or coexpressed with 0.7, 0.5, 0.3, or 0.1 pg/cell of each RAMP, and expression was induced 4 h after transfection with 1000 ng/ml dox. HEK293T cells transfected with 1 pg/cell of Tet-On CALCRL alone or with 0.5 pg/cell of RAMP2 served as controls. Twenty hours after transfection, media was replaced with BRET buffer. First, the HT7-tagged GPCR was labeled with “pulse” of 100 nM HaloTag Alexa Fluor 660 (cell impermeable, emission 690 nm) for 2 h at 16 °C in the dark. Next, a chase step was performed by adding 100 nM HaloTag 618 (cell permeable, emission 620 nm) for 2 h at 16 °C in the dark. Lastly, Nano-Glo Luciferase assay reagent was prepared per manufacturer’s instructions. Optimal dosage of dox was determined by selecting the concentration at the plateau from a dox dose-response experiment, in which dox-induced expression was assayed with the additional of Nano-Glo Luciferase assay reagent (Fig. S5I).
Data were acquired by measuring the luminescence at 460, 618, and 690 nm in kinetics mode on a SpectraMax i3X at 37 °C. The obtained emission intensity values were corrected, normalized, plotted against each other, and fitted to a linear equation to generate a scaling factor that was then used to calculate and graph the percentage surface labeling. Experiments were conducted in biological triplicate with three technical replicates each. The corrected 690/460 BRET ratio was normalized to the mean of MRGPRX4 alone (+dox). Similarly, total expression was normalized to the mean of the 460 nm luminescence for MRGPRX4 alone (+dox).

[2] = HA-CALCRL-1D4 series (Fig. S4J-L)
[3] = HA-CALCRL-GFP10-1D4 series (Fig. S4G-I)
[4] = HA-CALCRL-1D4 alone (Fig. S4J-L)
[5] = HA-CALCRL-GFP10-1D4 alone (Fig. S4G-I)
[6] = HA-CALCRL-1D4 + FLAG-RAMP3-OLLAS (Fig. S4J-L)
[7] = HA-CALCRL-1D4 + HA-RAMP3-OLLAS (Fig. S4J-L)
[8] = HA-CALCRL-GFP10-1D4 + FLAG-RAMP3-OLLAS (Fig. S4G-I)
[9] = HA-CALCRL-GFP10-1D4 + HA-RAMP3-OLLAS (Fig. S4G-I)
[10] = Tet-On MRGPRX4+RAMP2 (DNA ratio 1:0.5)

## CC[C@H](C)[C@H](NC(=O)[C@H](CCC(N)=O)NC(=O)[C@H](Cc1c[nH]cn1)NC(=O)[C@H](C)NC(=O)[C@H](CC(C)C)NC(=O)[C@H](CCCCN)NC(=O)[C@H](CCC(N)=O)NC(=O)[C@@H](NC(=O)[C@@H](NC(=O)[C@@H]1CSSC[C@H](NC(=O)CNC(=O)[C@H](Cc2ccccc2)NC(=O)[C@H](CO)NC(=O)[C@H](CCCNC(=N)N)NC(=O)[C@H](CC(C)C)NC(=O)CNC(=O)[C@H](CCC(N)=O)NC(=O)[C@H](Cc2ccccc2)NC(=O)[C@H](CC(N)=O)NC(=O)[C@H](CC(N)=O)NC(=O)[C@H](CCSC)NC(=O)[C@H](CO)NC(=O)[C@H](CCC(N)=O)NC(=O)[C@H](CCCNC(=N)N)NC(=O)[C@@H](N)Cc2ccc(O)cc2)C(=O)N[C@@H](CCCNC(=N)N)C(=O)N[C@@H](Cc2ccccc2)C(=O)NCC(=O)N[C@@H]([C@@H](C)O)C(=O)N1)[C@@H](C)O)C(C)C)C(=O)N[C@@H](Cc1ccc(O)cc1)C(=O)N[C@@H](CCC(N)=O)C(=O)N[C@@H](Cc1ccccc1)C(=O)N[C@H](C(=O)N[C@@H](CC(=O)O)C(=O)N[C@@H](CCCCN)C(=O)N[C@@H](CC(=O)O)C(=O)N[C@@H](CCCCN)C(=O)N[C@@H](CC(=O)O)C(=O)N[C@@H](CC(N)=O)C(=O)N[C@H](C(=O)N[C@@H](C)C(=O)N1CCC[C@H]1C(=O)N[C@@H](CCCNC(=N)N)C(=O)N[C@@H](CO)C(=O)N[C@@H](CCCCN)C(=O)N[C@H](C(=O)N[C@@H](CO)C(=O)N1CCC[C@H]1C(=O)N[C@@H](CCC(N)=O)C(=O)NCC(=O)N[C@@H](Cc1ccc(O)cc1)C(N)=O)[C@@H](C)CC)C(C)C)[C@@H](C)O [Adrenomedullin]
[1]; [2]
  IP1 Basal: 0.9133
  IP1 Emax: 0.05397
  IP1 span: -0.8593
[1]; [3]
  IP1 Basal: 0.1993
  IP1 Emax: 11.54
  IP1 span: 11.34
CALCRL; [4]
  IP1 Basal: 11.35
  IP1 span: Unstable
CALCRL; [5]
  Emax: 10.5%
  IP1 Basal: 4.246
  Span: 6.24%
CALCRL + RAMP3; [6]
  Emax: 96%
  IP1 Basal: 9.152
  IP1 span: 86.8%
CALCRL + RAMP3; [7]
  Emax: 108%
  IP1 Basal: 8.590
  IP1 span: 99.5%
CALCRL + RAMP3; [8]
  Emax: 84.9%
  IP1 Basal: 11.09
  IP1 span: 73.8%
CALCRL + RAMP3; [9]
  Emax: 102%
  IP1 Basal: 9.590
  IP1 span: 92%

## COc1ccc2c(c1)CC[C@@H]1[C@@H]2CC[C@]2(C)[C@@H](NCCCCCCN3C(=O)C=CC3=O)CC[C@@H]12 [U73122]
MRGPRX4; MRGX4, Basal, U73122 30uM, Fig S1e
  IP1 accumulation: 3.194 and 5.28
MRGPRX4
  effect on nateglinide and DCA IP1 responses: inhibited
  effect on MRGPRX4 basal IP1 activity: abolished

## C=C1C(=O)NC(C)C(=O)N(C)C(C)C(=O)NC(C(OC(=O)C(NC(C)=O)C(O)C(C)C)C(C)C)C(=O)N(C)C(C(C)OC)C(=O)OC(C)C(NC(C)=O)C(=O)OC(Cc2ccccc2)C(=O)N1C (centres unmarked) [YM254890] (Ac-T[PhLac][NMeDha]A[NMeA][X1][NMeT](Me); ester 1-C; configuration not given here)
MRGPRX4; MRGPRX4 0.125 pg DNA/cell
  IP1 accumulation with YM (Figure 1c): 1.405
MRGPRX4; MRGPRX4 0.25 pg DNA/cell
  IP1 accumulation with YM (Figure 1c): 1.309
MRGPRX4; MRGPRX4 0.5 pg DNA/cell
  IP1 accumulation with YM (Figure 1c): 1.374
MRGPRX4; MRGPRX4 1 pg DNA/cell
  IP1 accumulation with YM (Figure 1c): 1.6019
MRGPRX4; MRGPRX4 2 pg DNA/cell
  IP1 accumulation with YM (Figure 1c): 1.692
MRGPRX4
  effect on nateglinide and DCA IP1 responses: inhibited
  effect on MRGPRX4 basal IP1 activity: abolished
[1]; YM 1 µM, MRGPRX4 0 pg DNA/cell, no agonist
  IP1 accumulation with YM (Figure 1c): 1.719

## C[C@H]1c2cccc(O)c2C(=O)C2=C(O)[C@]3(O)C(=O)C(C(N)=O)=C(O)[C@@H](N(C)C)[C@@H]3[C@@H](O)[C@@H]21 [dox, doxycycline]
Tet-On MRGPRX4; [10]
  EC50: 8.07 ng/mL
  total expression Basal: 0.003719
  total expression Emax: 0.7930
  total expression logEC50: 0.9067
  total expression span: 0.7893
Tet-On MRGPRX4; Tet-On MRGPRX4 alone
  EC50: 4.05 ng/mL (≈ 9.1 nM)
  total expression Basal: 0.009273
  total expression Emax: 0.9497
  total expression logEC50: 0.6070
  total expression span: 0.9404
